Reference: ChEMBL document CHEMBL1201862, “PubChem BioAssay data set” (2004)
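Where inhibition never reached the appropriate level, the endpoint shown equals the highest concentration tested. Otherwise, values were interpolated linearly from a five-concentration, 48-hour dose response in 96-well plates. Abbreviation: GI50, concentration required for 50% inhibition of growth.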 Active and inactive are the calls of the source. Rule as the data show it: active = GI50 up to about 1.1 µM and inactive = higher.

How the values were obtained:
Experiment in all cases: NCI anticancer screen, dose series, 48 h
HOP-62 = tested on: HOP-62
SNB-19 = tested on: SNB-19
OVCAR-5 = tested on: OVCAR-5
ACHN = tested on: ACHN
OVCAR-4 = tested on: OVCAR-4
SNB-78 = tested on: SNB-78
786-0 = tested on: 786-0
A498 = tested on: A498
UACC-257 = tested on: UACC-257
LXFL 529 = tested on: LXFL 529
NCI-H23 = tested on: NCI-H23
HOP-92 = tested on: HOP-92
SR = tested on: SR
MOLT-4 = tested on: MOLT-4
RPMI-8226 = tested on: RPMI-8226
DMS-114 = tested on: DMS-114
SF-268 = tested on: SF-268
UO-31 = tested on: UO-31
RXF 393 = tested on: RXF 393
COLO 205 = tested on: COLO 205
KM-20L2 = tested on: KM-20L2
HT-29 = tested on: HT-29
SF-295 = tested on: SF-295
HL-60 = tested on: HL-60
NCI-H522 = tested on: NCI-H522
K562 = tested on: K562
SNB-75 = tested on: SNB-75
M14 = tested on: M14
KM12 = tested on: KM12
SK-MEL-28 = tested on: SK-MEL-28
IGROV-1 = tested on: IGROV-1
U-251 = tested on: U-251
UACC-62 = tested on: UACC-62
SK-OV-3 = tested on: SK-OV-3
NCI-H460 = tested on: NCI-H460
M19-MEL = tested on: M19-MEL
SK-MEL-2 = tested on: SK-MEL-2
OVCAR-3 = tested on: OVCAR-3
Malme-3M = tested on: Malme-3M
HCC 2998 = tested on: HCC 2998
A549 = tested on: A549
TK-10 = tested on: TK-10
OVCAR-8 = tested on: OVCAR-8
HCT-116 = tested on: HCT-116
NCI-H226 = tested on: NCI-H226
CCRF-CEM = tested on: CCRF-CEM
MDA-N = tested on: MDA-N
SW-620 = tested on: SW-620
EKVX = tested on: EKVX
SN12C = tested on: SN12C
MCF7 = tested on: MCF7
T47D = tested on: T47D
MDA-MB-231 = tested on: MDA-MB-231
CAKI-1 = tested on: CAKI-1
Hs-578T = tested on: Hs-578T
PC-3 = tested on: PC-3
HCT-15 = tested on: HCT-15
BT-549 = tested on: BT-549
MDA-MB-435 = tested on: MDA-MB-435
SK-MEL-5 = tested on: SK-MEL-5
DU-145 = tested on: DU-145
NCI/ADR-RES = tested on: NCI/ADR-RES
LOX IMVI = tested on: LOX IMVI
SF-539 = tested on: SF-539

COc1ccc2c(c1)CC[C@@H]1C2CC[C@]2(C)C(=O)N(CCN3CCCC3)C(=O)CC12 (some centres not stated)
GI50 (HOP-62): 28.3 µM (inactive) | GI50 (SNB-19): > 100 µM (inactive) | GI50 (OVCAR-5): 26.1 µM (inactive) | GI50 (ACHN): 59.3 µM (inactive) | GI50 (OVCAR-4): 84.3 µM (inactive) | GI50 (SNB-78): 31.4 µM (inactive) | GI50 (786-0): 18.3 µM (inactive) | GI50 (A498): 27.9 µM (inactive) | GI50 (UACC-257): 18.5 µM (inactive) | GI50 (LXFL 529): 26.4 µM (inactive) | GI50 (NCI-H23): 49.7 µM (inactive) | GI50 (HOP-92): 17.8 µM (inactive) | GI50 (SR): 31 µM (inactive) | GI50 (MOLT-4): 17.3 µM (inactive) | GI50 (RPMI-8226): 15.3 µM (inactive) | GI50 (DMS-114): 26.5 µM (inactive) | GI50 (SF-268): 35.1 µM (inactive) | GI50 (UO-31): 17.9 µM (inactive) | GI50 (RXF 393): 34 µM (inactive) | GI50 (COLO 205): 17.7 µM (inactive) | GI50 (KM-20L2): 21.4 µM (inactive) | GI50 (HT-29): 17.4 µM (inactive) | GI50 (SF-295): 19.1 µM (inactive) | GI50 (HL-60): 18.7 µM (inactive) | GI50 (NCI-H522): 23.1 µM (inactive) | GI50 (K562): 20.4 µM (inactive) | GI50 (SNB-75): 15.1 µM (inactive) | GI50 (M14): 15.8 µM (inactive) | GI50 (KM12): 29.4 µM (inactive) | GI50 (SK-MEL-28): 19.5 µM (inactive) | GI50 (IGROV-1): 44.7 µM (inactive) | GI50 (U-251): 43.9 µM (inactive) | GI50 (UACC-62): 18.2 µM (inactive) | GI50 (SK-OV-3): 66.7 µM (inactive) | GI50 (NCI-H460): 36.6 µM (inactive) | GI50 (M19-MEL): 18.2 µM (inactive) | GI50 (SK-MEL-2): 17.8 µM (inactive) | GI50 (OVCAR-3): 27.5 µM (inactive) | GI50 (Malme-3M): 17 µM (inactive)

COC1=C(OC)C23CCc4ccc(OC)c(O)c4C2(CCN3)CC1=O (configuration not stated)
GI50 (HCC 2998): > 100 µM (inactive) | GI50 (HOP-62): > 100 µM (inactive) | GI50 (SNB-19): > 100 µM (inactive) | GI50 (OVCAR-5): > 100 µM (inactive) | GI50 (ACHN): > 100 µM (inactive) | GI50 (OVCAR-4): > 100 µM (inactive) | GI50 (786-0): > 100 µM (inactive) | GI50 (A498): > 100 µM (inactive) | GI50 (A549): > 100 µM (inactive) | GI50 (TK-10): > 100 µM (inactive) | GI50 (UACC-257): > 100 µM (inactive) | GI50 (OVCAR-8): > 100 µM (inactive) | GI50 (HCT-116): > 100 µM (inactive) | GI50 (NCI-H226): > 100 µM (inactive) | GI50 (NCI-H23): > 100 µM (inactive) | GI50 (HOP-92): > 100 µM (inactive) | GI50 (SR): > 100 µM (inactive) | GI50 (CCRF-CEM): > 100 µM (inactive) | GI50 (MOLT-4): > 100 µM (inactive) | GI50 (RPMI-8226): > 100 µM (inactive) | GI50 (MDA-N): > 100 µM (inactive) | GI50 (SF-268): > 100 µM (inactive) | GI50 (SW-620): > 100 µM (inactive) | GI50 (EKVX): > 100 µM (inactive) | GI50 (SN12C): > 100 µM (inactive) | GI50 (MCF7): > 100 µM (inactive) | GI50 (RXF 393): > 100 µM (inactive) | GI50 (T47D): > 100 µM (inactive) | GI50 (MDA-MB-231): > 100 µM (inactive) | GI50 (CAKI-1): > 100 µM (inactive) | GI50 (COLO 205): > 100 µM (inactive) | GI50 (Hs-578T): > 100 µM (inactive) | GI50 (HT-29): > 100 µM (inactive) | GI50 (SF-295): > 100 µM (inactive) | GI50 (HL-60): > 100 µM (inactive) | GI50 (NCI-H522): > 100 µM (inactive) | GI50 (PC-3): > 100 µM (inactive) | GI50 (K562): > 100 µM (inactive) | GI50 (SNB-75): > 100 µM (inactive) | GI50 (HCT-15): > 100 µM | GI50 (BT-549): > 100 µM (inactive) | GI50 (MDA-MB-435): > 100 µM (inactive) | GI50 (SK-MEL-5): > 100 µM (inactive) | GI50 (M14): > 100 µM (inactive) | GI50 (KM12): > 100 µM (inactive) | GI50 (DU-145): > 100 µM (inactive) | GI50 (SK-MEL-28): > 100 µM (inactive) | GI50 (NCI/ADR-RES): > 100 µM (inactive) | GI50 (LOX IMVI): > 100 µM (inactive) | GI50 (IGROV-1): > 100 µM (inactive) | GI50 (U-251): > 100 µM (inactive) | GI50 (UACC-62): > 100 µM (inactive) | GI50 (SK-OV-3): > 100 µM (inactive) | GI50 (NCI-H460): > 100 µM (inactive) | GI50 (SK-MEL-2): > 100 µM (inactive) | GI50 (OVCAR-3): > 100 µM (inactive) | GI50 (Malme-3M): > 100 µM (inactive) | GI50 (SF-539): > 100 µM (inactive)
